Values after ≈ are worked out from the molar mass of the structure shown. Read-outs that look alike come from different tables or passages of the source.
Key:
[1] = system: MIA PaCa-2 cells; assay: In vitro anti-proliferative activity against MIA PaCa-2 cells (compound alone); assay type: cell-based; details: 72 h, intracellular ATP content
Procedure: (§1) MIA PaCa-2 cells were seeded on a 384-well plate at 3000 cells/well. After overnight adherence culture, DMSO or the compounds serially diluted 1:5 from 10 μM were added. The viability was assessed 72 h after dosing by measuring the intracellular ATP content. The inhibition percentage of viable cells by the compounds was calculated by comparing with the DMSO group, and the IC50 value was calculated.

[2] = In vitro solubility experiment; assay type: physicochemical; details: for solubility at 0.5 h: organic solvent or mixture, thermodynamic from solid
Procedure: (§2) Preparation of a standard curve: 10.01 mg of sample was weighed out and placed in a volumetric flask, and the volume was brought to 10 mL with acetonitrile/water (v/v, 9/1) to prepare 1.001 mg/mL of standard solution; the standard solution was then serially diluted to 0.5005 mg/mL, 0.1001 mg/mL, 0.05005 mg/mL, 0.01001 mg/mL, and 0.001001 mg/mL to generate the standard curve, and a linear equation was fitted by taking the peak area of the sample as a vertical axis and the concentration as a horizontal axis.
(§3) Solubility and stability test: 15 mg of sample was added to 3 mL of vehicle (FaSSIF, FeSSIF, SGF, or water) to prepare a corresponding suspension at a target concentration of 5 mg/mL. The prepared suspension was stirred on a shaker (800 rpm) at 37° C. for 0.5 h, and the suspension was then filtered. The filtrate was diluted with a diluent to a corresponding multiple so that the peak height could not exceed the standard curve, and the solubility and purity were detected using HPLC.

[3] = target: recombinant protein MYT1 (Homo sapiens (Human), UniProt Q99640); assay: In vitro assay for inhibiting MYT1 kinase activity (ADP-GLO); assay type: biochemical; details: 10 μM ATP, read-out: Inhibitory activity against recombinant protein MYT1 IC50
Procedure: Recombinant MYT1 protein and the compounds were pre-incubated at room temperature for 15 min, and 10 μM ATP was then added to start the reaction. The mixture was incubated at room temperature for another 60 min, and the ADP-GLO reagent from Promega was then added. The resulting mixture was incubated in the dark for 40 min, a detection solution was then added, and the mixture was incubated for another 45-60 min. The chemiluminescence was determined using ENVISION. The inhibition rate and IC50 were calculated compared to the DMSO group.

[4] = system: MIA PaCa-2 cells; assay: In vitro anti-proliferative activity in combination with gemcitabine against MIA PaCa-2 cells; assay type: cell-based
Procedure: as §1, with “cells/well, and 20 nM gemcitabine was added.” for “cells/well.”, “1000 nM” for “10 μM”

[5] = In vitro stability experiment (HPLC purity after stirring in vehicle); assay type: physicochemical
Procedure: as §2, §3

[6] = system: MDCK-Wild type; assay: in vitro
Procedure: (§4) In vitro passive permeability or the ability to serve as a P-glycoprotein (P-gp) transport substrate was tested using MDCK cells (MDCK wild type) or MDCK cells stably transduced with MDRI (MDCK-MDRI), respectively. The permeability experiment was performed in duplicate in a transwell system at a single concentration (5 μM). The cells were incubated for […] Apical-to-basolateral (A to B, A-B) transport and basolateral-to-apical (B to A, B-A) transport of the corresponding compound were determined, and the permeation rate (apparent permeability) (Papp×10^−6 cm/sec) and efflux ratio (Papp (B−A)/Papp (A−B)) of the test compound were calculated.

[7] = system: MDCK-MDR1; assay: in vitro; details: MDCK-MDR1
Procedure: as §4

[8] = In vivo pharmacokinetic experiment in mice; set-up: species or system CD-1 female mice; details: mouse
Procedure: CD-1 female mice aged 7 to 10 weeks were intravenously administered and orally administered at a dose of 2 mg/kg and 10 mg/kg, respectively. The mice were fasted for at least 12 h before the administration and given food 4 h after the administration, and they were given ad libitum access to water during the experiment. On the day of the experiment, animals in the intravenous group were administered the corresponding compound by single injection via the tail vein at an administration volume of 10 mL/kg. Animals in the oral group were administered the corresponding compound by single intragastric injection at an administration volume of 10 mL/kg. The animals were weighed before administration, and the administration volume was calculated according to the body weight. The sample collection time was 0.083 h (injection group), 0.167 h, 0.5 h, 1 h, 2 h, 4 h, 8 h, and 24 h. About 200 μL of whole blood was collected through the submaxillary venous plexus at each time point and used to prepare plasma for concentration determination by high-performance liquid chromatography-tandem mass spectrometry (LC-MS/MS). All animals were euthanized with CO2 anesthesia after the PK samples were collected at the last time point. The plasma concentrations were processed using a non-compartmental model of Phoenix WinNonlin™ version 8.3 (Certara) pharmacokinetic software, and the pharmacokinetic parameters were calculated using a linear-log trapezoidal method.

[9] = in vitro; details: dog, MDCK
Procedure: as §4

[10] = system: P-glycoprotein (P-gp, MDR1); assay: in vitro; details: dog
Procedure: as §4

[11] = stability in FaSSIF, initial pH 6.52, 37° C.
[12] = stability in FeSSIF, initial pH 4.98, 37° C.
[13] = stability in SGF, initial pH 1.2, 37° C.
[14] = stability in Water, initial pH 7.7, 37° C.
[15] = female, CD-1, plasma, iv, injection 2 mg/kg

Sequence of recombinant protein MYT1 (Q99640 whole entry): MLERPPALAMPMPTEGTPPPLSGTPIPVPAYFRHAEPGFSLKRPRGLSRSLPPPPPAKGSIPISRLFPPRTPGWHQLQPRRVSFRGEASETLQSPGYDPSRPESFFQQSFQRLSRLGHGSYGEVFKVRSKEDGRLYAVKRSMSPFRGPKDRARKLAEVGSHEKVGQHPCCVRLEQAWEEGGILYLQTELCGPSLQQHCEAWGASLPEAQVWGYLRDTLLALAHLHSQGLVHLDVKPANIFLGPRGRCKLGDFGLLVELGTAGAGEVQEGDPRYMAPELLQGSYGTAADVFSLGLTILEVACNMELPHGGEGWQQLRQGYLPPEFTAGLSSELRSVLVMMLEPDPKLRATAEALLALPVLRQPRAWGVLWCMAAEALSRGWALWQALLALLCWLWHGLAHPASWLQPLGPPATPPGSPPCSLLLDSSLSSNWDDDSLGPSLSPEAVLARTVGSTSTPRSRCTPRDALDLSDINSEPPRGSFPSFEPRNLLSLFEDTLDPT

Cc1cc2c(C(N)=O)c(N)n(-c3c(C)c(O)cc(F)c3C)c2nc1C (single isomer, unassigned) [Compound 2]
IC50 [1]: 4320 nM | solubility compared to RP-6306 (in words) ([2]; FaSSIF, FeSSIF, SGF, water, methanol, tetrahydrofuran): higher solubility in various vehicles | Solubility 0.5 h ([2]; FaSSIF, initial pH 6.52, 37° C.): 61 µg/mL (≈ 0.178 mM) | Solubility 0.5 h ([2]; FeSSIF, initial pH 4.98, 37° C.): 327 µg/mL (≈ 0.955 mM) | Solubility 0.5 h ([2]; Methanol): 40568 µg/mL (≈ 118 mM) | Solubility 0.5 h ([2]; SGF, initial pH 1.2, 37° C.): 4865 µg/mL (≈ 14.2 mM) | Solubility 0.5 h ([2]; Tetrahydrofuran): 6114 µg/mL (≈ 17.9 mM) | Solubility 0.5 h ([2]; Water, initial pH 7.7, 37° C.): 270 µg/mL (≈ 0.789 mM) | IC50 [3]: ≤ 200 nM | IC50 ([4]; read-out: Anti-proliferative activity against MIA PaCa-2 cells (20 nM gemcitabine) IC50, with 20 nM gemcitabine, 72 h, intracellular ATP content): 18 nM | anti-proliferative activity against MIA PaCa-2 cells in combination with gemcitabine (in words) ([4]; with 20 nM gemcitabine): stronger anti-proliferative activity than that of RP-6306 | stability compared to RP-6306 (in words) ([5]; FaSSIF, FeSSIF, water): more stable than RP-6306 in FaSSIF, FeSSIF, and water | HPLC purity (%, 220 nm) 0.5 h [5, 11]: 88.76% | HPLC purity (%, 220 nm) 0.5 h [5, 12]: 95.98% | HPLC purity (%, 220 nm) 0.5 h [5, 13]: 98.69% | HPLC purity (%, 220 nm) 0.5 h [5, 14]: 96.4% | Papp A-B Mean [6]: 27.10 10^−6 cm · s^−1 | Papp A-B Sample - 01 [6]: 27.93 10^−6 cm · s^−1 | Papp A-B Sample - 02 [6]: 26.28 10^−6 cm · s^−1 | Papp B-A Mean [6]: 42.24 10^−6 cm · s^−1 | Papp B-A Sample - 01 [6]: 39.97 10^−6 cm · s^−1 | Papp B-A Sample - 02 [6]: 44.50 10^−6 cm · s^−1 | permeability compared to RP-6306 (in words) [6]: superior permeability to that of RP-6306 | Papp A-B Mean [7]: 20.50 10^−6 cm · s^−1 | Papp A-B Sample - 01 [7]: 21.08 10^−6 cm · s^−1 | Papp A-B Sample - 02 [7]: 19.91 10^−6 cm · s^−1 | Papp B-A Mean [7]: 35.01 10^−6 cm · s^−1 | Papp B-A Sample - 01 [7]: 35.27 10^−6 cm · s^−1 | Papp B-A Sample - 02 [7]: 34.76 10^−6 cm · s^−1 | permeability compared to RP-6306 (in words) [7]: superior permeability to that of RP-6306 | Vdss compared to RP-6306 (in words) [8]: greater increase in Vdss compared to RP-6306 | half-life T1/2 compared to RP-6306 (in words) [8]: longer half-life T1/2 compared to RP-6306 | AUC0-last ([8]; injection 2 mg/kg): 337.7 ng·h/mL | Cl ([8]; injection 2 mg/kg): 94.4 mL/min/kg | T1/2 ([8]; injection 2 mg/kg): 3.32 h | Vdss ([8]; injection 2 mg/kg): 6.76 L/kg | AUC0-last ([8]; oral administration 10 mg/kg): 638.2 ng·h/mL | Cmax ([8]; oral administration 10 mg/kg): 603.3 ng/mL | F % ([8]; oral administration 10 mg/kg): 44.5% | T1/2 ([8]; oral administration 10 mg/kg): 3.84 h

Cc1cc2c(C(N)=O)c(N)n(-c3c(C)ccc(O)c3C)c2nc1C [RP-6306, reference compound]
solubility at 0.5 h ([2]; Methanol): 20200 µg/mL (≈ 62.2 mM) | solubility at 0.5 h ([2]; Tetrahydrofuran): 4520 µg/mL (≈ 13.9 mM) | IC50 ([4]; Homo sapiens, MIA PaCa-2, 72 h, read-out: Anti-proliferative activity against MIA PaCa-2 cells (20 nM gemcitabine) IC50, with 20 nM gemcitabine, 72 h, intracellular ATP content): 29 nM | HPLC purity (%, 220 nm) 0.5 h [5, 11]: 58.88% | HPLC purity (%, 220 nm) 0.5 h [5, 12]: 74.51% | HPLC purity (%, 220 nm) 0.5 h [5, 13]: 98.18% | HPLC purity (%, 220 nm) 0.5 h [5, 14]: 40.92% | efflux ratio at 90 min, 5 μM [9]: 2.17 | Papp A→B at 90 min, 5 µM ([9]; Papp A-B Mean): 17.1 ×10⁻⁶ cm/s | Papp A→B at 90 min, 5 µM ([9]; Papp A-B Sample - 01): 15.1 ×10⁻⁶ cm/s | Papp A→B at 90 min, 5 µM ([9]; Papp A-B Sample - 02): 19.1 ×10⁻⁶ cm/s | Papp B→A at 90 min, 5 µM ([9]; Papp B-A Mean): 37.2 ×10⁻⁶ cm/s | Papp B→A at 90 min, 5 µM ([9]; Papp B-A Sample - 01): 38.5 ×10⁻⁶ cm/s | Papp B→A at 90 min, 5 µM ([9]; Papp B-A Sample - 02): 35.9 ×10⁻⁶ cm/s | efflux ratio at 90 min, 5 μM ([10]; MDCK-MDR1): 2.64 | Papp A→B at 90 min, 5 µM ([10]; MDCK-MDR1, Papp A-B Mean): 13.9 ×10⁻⁶ cm/s | Papp A→B at 90 min, 5 µM ([10]; MDCK-MDR1, Papp A-B Sample - 01): 13.9 ×10⁻⁶ cm/s | Papp A→B at 90 min, 5 µM ([10]; MDCK-MDR1, Papp A-B Sample - 02): 14 ×10⁻⁶ cm/s | Papp B→A at 90 min, 5 µM ([10]; MDCK-MDR1, Papp B-A Mean): 36.9 ×10⁻⁶ cm/s | Papp B→A at 90 min, 5 µM ([10]; MDCK-MDR1, Papp B-A Sample - 01): 37.6 ×10⁻⁶ cm/s | Papp B→A at 90 min, 5 µM ([10]; MDCK-MDR1, Papp B-A Sample - 02): 36.2 ×10⁻⁶ cm/s | AUC(0-t) [8, 15]: 376 ng·h/mL | half-life [8, 15]: 0.56 h | Vd ([8]; female, CD-1, plasma, iv, injection 2 mg/kg, read-out: Vdss): 2.46 L/kg | AUC(0-t) ([8]; female, CD-1, plasma, oral administration 10 mg/kg): 1030 ng·h/mL | Cmax ([8]; female, CD-1, plasma, oral administration 10 mg/kg, read-out: Cmax): 881 ng/mL | Cl ([8]; injection 2 mg/kg): 46.5 mL/min/kg | F % ([8]; oral administration 10 mg/kg): 54.7%

From US20260001879A1, “COMPOUNDS AS MYT1 INHIBITORS” (WIGEN BIOMMEDICINE TECHNOLOGY (SHANGHAI) CO., LTD., priority 2022, published 2026)
